Reference: patent US20120270237A9, “METHODS FOR THE IDENTIFICATION OF KINASE INTERACTING MOLECULES AND FOR THE PURIFICATION OF KINASE PROTEINS” (Cellzone AG, priority 2009, published 2012)

Key:
Test in all cases: Kinobeads competition binding, HL60 cell lysate
Parameters in all cases: endogenous in cells; host or cells: HL60
Conditions in all cases: 10 μM free compound
PIP5K2C = biological target: T1, PIP5K2C (Homo sapiens, UniProt Q8TBX8)
T1 sequence (Q8TBX8 1-421): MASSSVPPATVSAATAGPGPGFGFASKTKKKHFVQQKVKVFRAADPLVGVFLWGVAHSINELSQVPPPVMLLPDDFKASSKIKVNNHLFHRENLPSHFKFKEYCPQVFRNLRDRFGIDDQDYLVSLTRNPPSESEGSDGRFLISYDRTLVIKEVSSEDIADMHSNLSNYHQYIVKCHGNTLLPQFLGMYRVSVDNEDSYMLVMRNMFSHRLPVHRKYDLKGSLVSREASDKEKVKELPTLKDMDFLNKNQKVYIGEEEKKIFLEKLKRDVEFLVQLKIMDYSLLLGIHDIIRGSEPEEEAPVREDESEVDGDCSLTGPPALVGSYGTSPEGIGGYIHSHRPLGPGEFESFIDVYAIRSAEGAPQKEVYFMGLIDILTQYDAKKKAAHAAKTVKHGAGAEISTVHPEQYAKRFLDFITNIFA
Description: (§1) To one aliquot of cell lysate 10 μM of the free compound (FIG. 3, CZC31326) was added and allowed to bind to proteins in the lysate. Then the affinity matrix with the immobilized compound (Example 1) was added to capture proteins that were not interacting with the previously added free compound. Beads were separated from the lysate and bead bound proteins were eluted in SDS sample buffer and subsequently separated by SDS-Polyacrylamide gel electrophoresis (FIG. 4). Suitable gel bands were cut out and subjected to in-gel proteolytic digestion with trypsin. The second lysate aliquot was processed identically, however no free compound was added (DMSO solvent control). Peptides originating from samples 1 and 2 were labeled with iTRAQ reagents (iTRAQ 114 and iTRAQ 117) and the combined samples were analyzed with a nano-flow liquid chromatography system coupled online to a tandem mass spectrometer (LC-MS/MS) experiment followed by iTRAQ reporter ion quantification in the MS/MS spectra (Ross et al., 2004. Mol. Cell. Proteomics 3(12):1154-1169). Further experimental protocols can be found in WO2006/134056 and a previous publication (Bantscheff et al., 2007. Nature Biotechnology 25, 1035-1044). Sepharose-beads with the immobilized compound (100 μl beads per pull-down experiment) were equilibrated in lysis buffer and incubated with a cell lysate sample containing 50 mg of protein on an end-over-end shaker (Roto Shake Genie, Scientific Industries Inc.) for 2 hours at 4° C. Beads were collected, transferred to Mobicol-columns (MoBiTech 10055) and washed with 10 ml lysis buffer containing 0.4% NP40 detergent, followed by 5 ml lysis buffer containing 0.2% detergent. To elute bound proteins, 60 μl 2×SDS sample buffer was added to the column. The column was incubated for 30 minutes at 50° C. and the eluate was transferred to a siliconized microfuge tube by centrifugation. Proteins were then alkylated with 108 mM iodoacetamid. Proteins were then separated by SDS-Polyacrylamide electrophoresis (SDS-PAGE). The peptide extracts of samples treated with 10 μM of free compound (CZC31326) and the solvent control (0.5% DMSO) were treated with different variants of the isobaric tagging reagent (iTRAQ Reagents Multiplex Kit, part number 4352135, Applied Biosystems, Foster City, Calif., USA). The iTRAQ reagents are a set of multiplexed, amine-specific, stable isotope reagents that can label peptides on amino groups in up to four different biological samples enabling simultaneous identification and quantitation of peptides. The iTRAQ reagents were used according to instructions provided by the manufacturer. The samples were resuspended in 10 μl 50 mM TEAB solution, pH 8.5 and 10 μl ethanol were added. The iTRAQ reagent was dissolved in 120 μl ethanol and 10 μl of reagent solution were added to the sample. The labeling reaction was performed at room temperature for one hour on a horizontal shaker and stopped by adding 5 μl of 100 mM TEAB and 100 mM glycine in water. The two labeled sampled were then combined, dried in a vacuum centrifuge and resuspended in 10 μl of 0.1% formic acid in water. Relative protein quantitation was performed using peak areas of iTRAQ reporter ion signals essentially as described in an earlier publication (Bantscheff et al., 2007. Nature Biotechnology 25, 1035-1044).

HPK1 = HPK1 (Homo sapiens, UniProt Q92918)
Description: as §1

IRAK1 = IRAK1 (Homo sapiens, UniProt P51617)
Description: as §1

TAO3 = biological target: T2, TAO3 (Homo sapiens, UniProt Q9H2K8)
T2 sequence (Q9H2K8 1-898): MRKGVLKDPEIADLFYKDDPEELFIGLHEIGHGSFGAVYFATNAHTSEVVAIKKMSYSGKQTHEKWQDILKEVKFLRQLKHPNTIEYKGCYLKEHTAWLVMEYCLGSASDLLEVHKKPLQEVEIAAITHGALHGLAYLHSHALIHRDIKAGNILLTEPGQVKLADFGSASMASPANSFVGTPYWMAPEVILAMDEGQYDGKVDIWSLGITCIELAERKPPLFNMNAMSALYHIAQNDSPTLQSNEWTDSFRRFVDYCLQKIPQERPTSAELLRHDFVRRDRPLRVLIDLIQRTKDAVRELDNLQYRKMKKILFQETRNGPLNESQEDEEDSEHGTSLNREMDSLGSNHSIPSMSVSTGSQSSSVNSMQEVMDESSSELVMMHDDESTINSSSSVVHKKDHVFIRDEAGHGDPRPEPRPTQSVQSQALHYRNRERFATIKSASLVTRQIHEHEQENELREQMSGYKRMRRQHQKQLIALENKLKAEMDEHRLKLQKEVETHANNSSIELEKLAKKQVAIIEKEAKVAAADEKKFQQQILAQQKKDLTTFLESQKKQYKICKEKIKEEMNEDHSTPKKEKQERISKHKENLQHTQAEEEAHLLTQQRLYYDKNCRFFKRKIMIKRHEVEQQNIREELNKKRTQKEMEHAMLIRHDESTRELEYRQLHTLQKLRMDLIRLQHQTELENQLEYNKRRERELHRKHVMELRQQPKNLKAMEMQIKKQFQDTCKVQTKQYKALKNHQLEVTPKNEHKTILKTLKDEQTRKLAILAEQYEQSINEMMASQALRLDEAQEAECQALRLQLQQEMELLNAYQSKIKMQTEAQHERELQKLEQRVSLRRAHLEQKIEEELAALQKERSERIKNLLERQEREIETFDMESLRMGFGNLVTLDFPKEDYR
Description: as §1

MYT1 = MYT1 (Homo sapiens, UniProt Q99640)
Description: as §1

Sequence of HPK1 (Q92918 whole entry): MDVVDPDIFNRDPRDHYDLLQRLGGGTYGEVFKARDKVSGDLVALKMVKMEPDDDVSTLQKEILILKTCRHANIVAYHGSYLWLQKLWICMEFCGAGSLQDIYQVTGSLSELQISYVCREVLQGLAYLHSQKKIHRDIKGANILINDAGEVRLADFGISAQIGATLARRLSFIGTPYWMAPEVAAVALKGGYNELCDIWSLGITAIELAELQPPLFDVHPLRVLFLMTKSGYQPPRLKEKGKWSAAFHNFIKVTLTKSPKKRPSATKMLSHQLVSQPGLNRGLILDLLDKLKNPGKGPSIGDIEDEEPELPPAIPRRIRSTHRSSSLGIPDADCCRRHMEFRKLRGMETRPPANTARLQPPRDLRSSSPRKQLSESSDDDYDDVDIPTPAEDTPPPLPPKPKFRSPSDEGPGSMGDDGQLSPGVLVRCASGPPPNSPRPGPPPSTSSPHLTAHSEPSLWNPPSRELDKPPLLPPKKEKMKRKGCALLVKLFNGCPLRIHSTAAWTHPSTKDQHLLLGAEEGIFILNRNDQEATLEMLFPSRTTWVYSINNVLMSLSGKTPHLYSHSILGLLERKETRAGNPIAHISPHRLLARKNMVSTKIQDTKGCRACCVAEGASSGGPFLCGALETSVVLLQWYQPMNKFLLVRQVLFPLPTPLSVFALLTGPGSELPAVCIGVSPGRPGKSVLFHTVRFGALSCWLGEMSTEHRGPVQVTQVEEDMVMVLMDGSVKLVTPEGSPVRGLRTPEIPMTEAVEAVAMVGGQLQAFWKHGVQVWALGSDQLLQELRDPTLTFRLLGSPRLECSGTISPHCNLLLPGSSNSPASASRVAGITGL
Sequence of IRAK1 (P51617 whole entry): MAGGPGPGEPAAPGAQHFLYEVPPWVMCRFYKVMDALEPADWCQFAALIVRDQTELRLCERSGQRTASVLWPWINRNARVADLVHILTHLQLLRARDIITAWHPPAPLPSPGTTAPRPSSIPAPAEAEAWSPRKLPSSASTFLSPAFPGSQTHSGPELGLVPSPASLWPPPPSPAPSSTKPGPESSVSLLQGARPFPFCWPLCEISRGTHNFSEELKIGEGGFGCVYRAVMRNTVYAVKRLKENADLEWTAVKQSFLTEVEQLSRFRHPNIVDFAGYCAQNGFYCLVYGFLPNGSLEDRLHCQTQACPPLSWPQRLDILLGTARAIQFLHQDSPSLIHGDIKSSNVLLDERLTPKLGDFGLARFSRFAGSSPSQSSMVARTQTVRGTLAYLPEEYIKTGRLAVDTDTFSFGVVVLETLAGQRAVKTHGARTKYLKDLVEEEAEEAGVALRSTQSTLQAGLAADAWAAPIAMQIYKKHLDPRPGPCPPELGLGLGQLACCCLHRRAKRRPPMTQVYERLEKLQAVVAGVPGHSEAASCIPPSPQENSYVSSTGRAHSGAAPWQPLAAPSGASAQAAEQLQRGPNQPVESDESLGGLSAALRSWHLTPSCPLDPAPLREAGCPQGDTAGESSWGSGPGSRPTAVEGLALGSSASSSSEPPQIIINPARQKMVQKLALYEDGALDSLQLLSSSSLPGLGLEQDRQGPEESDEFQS
Sequence of MYT1 (Q99640 whole entry): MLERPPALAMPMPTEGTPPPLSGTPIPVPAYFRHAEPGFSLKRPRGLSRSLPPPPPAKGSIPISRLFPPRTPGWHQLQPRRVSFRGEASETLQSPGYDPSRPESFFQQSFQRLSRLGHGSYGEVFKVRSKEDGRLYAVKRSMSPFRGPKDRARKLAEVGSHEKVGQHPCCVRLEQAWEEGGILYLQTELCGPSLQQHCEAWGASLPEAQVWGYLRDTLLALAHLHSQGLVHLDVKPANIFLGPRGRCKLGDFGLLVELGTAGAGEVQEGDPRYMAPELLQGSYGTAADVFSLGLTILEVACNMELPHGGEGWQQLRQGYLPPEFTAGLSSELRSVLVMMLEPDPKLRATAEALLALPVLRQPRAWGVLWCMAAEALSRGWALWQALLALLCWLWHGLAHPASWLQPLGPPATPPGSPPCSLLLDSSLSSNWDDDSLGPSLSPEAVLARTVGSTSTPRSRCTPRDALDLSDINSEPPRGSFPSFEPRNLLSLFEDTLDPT

inhibition at 10 µM (PIP5K2C): 98.3% | inhibition at 10 µM (HPK1): 97.7% | inhibition at 10 µM (IRAK1): 94.9% | inhibition at 10 µM (TAO3): 98% | Competition % (MYT1): 90.5%
SMILES: CS(=O)(=O)Nc1ccccc1Nc1nc(Nc2cccc(OCCN)c2)ncc1Cl [CZC31326, N-(2-(2-(3-(2-aminoethoxy)phenylamino)-5-chloropyrimidin-4-ylamino)phenyl)methanesulfonamide]
